Article PMC12179625, “Development of an LC-MS/MS method for quantification of colistin and colistin methanesulfonate in human plasma and its application to stability studies and therapeutic drug monitoring” (Journal of Mass Spectrometry and Advances in the Clinical …, 2025)
Where a SMILES comes first, the peptide text is derived from it. Bridges are numbered along the chain shown (N, C = ends). [ ]: non-standard residue; d: D form. The star is where a group is joined. Heptanoyl(6-Me) = CC(C)CCCCC(=O)*; Dab = NCC[C@H](N)C(=O)O

What was measured:
[1] = Stability of colistin A and colistin B in plasma samples; type: in vitro ADME; conditions: spiked human plasma, accuracy vs theoretical concentration, LC-MS/MS, mean ± SD, n = 3; for −80 °C freeze–thaw 3 times: three freeze–thaw cycles −80 °C to room temperature
Experimental: The calibration standard samples and QC samples were both obtained by diluting the corresponding working solution with blank plasma at a ratio of 1:19. The concentrations of the calibration standard samples were 0.10, 0.25, 0.50, 1.0, 2.5, 5.0, 8.0 and 10 μg/mL while the concentrations of the QC samples were 0.10 (LLOQ), 0.30 (LQC), 2.0 (MQC), 7.5 (HQC), and 30 (DQC) μg/mL.
(§1) The SPE column was activated by using 1 mL of methanol followed by 2 mL of ultrapure water. Subsequently, 200 μL of either calibration standard samples, QC samples, or patient plasma samples were mixed with 100 μL of IS working solution and 700 μL of 1.43 % ammonia, This step is to ensure that the solution is in a non-acidic environment. This mixture was thoroughly vortexed to ensure homogeneity. The mixed samples were then loaded onto the Welch BRP SPE columns. After sequentially washing the column with a total of 4 mL of 1 % ammonia, the analytes were eluted twice with 200 μL of […] (30:70, v/v) containing 4 % formic acid. Ultimately, 400 μL total eluate was collected and analyzed by LC-MS/MS.
(§2) This study investigated the stability of colistin A and colistin B during the assay process, including the stability of plasma samples at room temperature for 24 h, the stability through three cycles of repeated freeze–thaw from −80 °C to room temperature, the stability during storage at −80 °C for three months, and the autosampler stability of processed samples at 4°C for 24 h. Three parallel samples were prepared for each condition. If the accuracy of the samples under storage conditions is within 85 % to 115 %, the stability is considered acceptable.

[2] = Autosampler stability of processed colistin samples; type: physicochemical; conditions: autosampler 4 °C, accuracy, LC-MS/MS, mean ± SD, n = 3
Experimental: as §1, §2

CC(C)CCCCC(=O)N[C@@H](CCN)C(=O)N[C@H](C(=O)N[C@@H](CCN)C(=O)N[C@H]1CCNC(=O)[C@H]([C@@H](C)O)NC(=O)[C@H](CCN)NC(=O)[C@H](CCN)NC(=O)[C@H](CC(C)C)NC(=O)[C@@H](CC(C)C)NC(=O)[C@H](CCN)NC1=O)[C@@H](C)O [Colistin B, colistin B] ({Heptanoyl(6-Me)}-[Dab]T[Dab][Dab][Dab][dL]L[Dab][Dab]T; lactam 4-C)
Frozen at −80 °C for 3 months ([1]; HQC 7.5 μg/mL): 98.76 ± 4.29%
Room temperature 24 h ([1]; HQC 7.5 μg/mL): 99.39 ± 1.70%
−80 °C freeze–thaw 3 times ([1]; HQC 7.5 μg/mL): 99.13 ± 6.46%
Frozen at −80 °C for 3 months ([1]; LQC 0.30 μg/mL): 109.29 ± 3.71%
Room temperature 24 h ([1]; LQC 0.30 μg/mL): 110.01 ± 3.95%
−80 °C freeze–thaw 3 times ([1]; LQC 0.30 μg/mL): 110.17 ± 4.65%
Processed sample In the sampler at 4 °C for 24 h ([2]; SPE eluate (acetonitrile 30:70 with 4 % formic acid) of HQC 7.5 μg/mL plasma): 106.46 ± 6.48%
Processed sample In the sampler at 4 °C for 24 h ([2]; SPE eluate (acetonitrile 30:70 with 4 % formic acid) of LQC 0.30 μg/mL plasma): 108.54 ± 3.07%
